Experimental findings from patent US8361968B2 (Takeda Pharmaceutical Company Limited, priority 2002, dated 2013) are described below.

Square brackets hold non-standard residues; d marks the D form. Peptide text beside a SMILES is read from it. * marks the point of attachment. Propanoyl(3-indol-3-yl) = O=C(CCc1c[nH]c2ccccc12)*; 1Nal = N[C@@H](Cc1cccc2ccccc12)C(=O)O; Arg(Me) = CNC(=N)NCCC[C@H](N)C(=O)O; X6 = O=C(c1c[nH]c2ccccc12)*; azaGly = NNC(=O)O

In assay [1] the target is T1, hOT7T175 (Homo sapiens, UniProt Q969F8, L364H). The assay is described as follows: Intracellular Ca ion level-increasing activity using FLIPR in hOT7T175/CHO. The class given is cell-based. The arrangement: expressed in transfected cells; host or cells: CHO/dhfr- cells, obtained from ATCC. The conditions noted are these: relative, Metastin (1-54) = 1.
T1 sequence (Q969F8 whole entry L364H): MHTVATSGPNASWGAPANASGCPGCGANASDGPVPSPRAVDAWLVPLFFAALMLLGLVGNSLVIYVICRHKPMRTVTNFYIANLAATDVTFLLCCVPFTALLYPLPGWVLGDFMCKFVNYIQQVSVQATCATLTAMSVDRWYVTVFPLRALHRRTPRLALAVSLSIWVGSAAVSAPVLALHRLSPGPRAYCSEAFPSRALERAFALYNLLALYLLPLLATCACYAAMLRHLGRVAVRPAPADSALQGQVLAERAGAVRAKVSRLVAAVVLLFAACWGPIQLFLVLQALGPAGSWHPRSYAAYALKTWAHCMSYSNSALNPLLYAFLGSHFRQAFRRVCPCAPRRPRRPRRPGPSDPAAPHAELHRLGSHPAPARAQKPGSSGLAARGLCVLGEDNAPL
In assay [2] the target is T1, hOT7T175. Nature of the assay: hOT7T175 receptor binding activity: binding inhibition of Cy-5-labeled metastin (40-54) on hOT7T175-expressed CHO cells. The arrangement: expressed in transfected cells; host or cells: CHO cells.

As to `CNC(=N)NCCC[C@H](NC(=O)[C@H](CC(C)C)NC(=O)NNC(=O)[C@H](Cc1ccccc1)NC(=O)[C@H](CO)NC(=O)[C@H](CC(N)=O)NC(=O)[C@H](C)NC(=O)[C@H](CC(N)=O)NC(=O)[C@H](N)Cc1ccc(O)cc1)C(=O)N[C@@H](Cc1ccccc1)C(N)=O` [Compound No. 235, D-Tyr-Asn-Ala-Asn-Ser-Phe-AzaGly-Leu-Arg(Me)-Phe-NH2] (H-[dY]NANSF[azaGly]L[Arg(Me)]F-NH2), the “Specific Activity (intracellular Ca ion level-increasing activity)” value on hOT7T175 [1] was 1. This molecule had an IC50 at hOT7T175 [2] of 100 nM.
Take `CNC(=N)NCCC[C@H](NC(=O)[C@H](CC(C)C)NC(=O)NNC(=O)[C@H](Cc1ccccc1)NC(=O)[C@H](CO)NC(=O)[C@H](CC(N)=O)NC(=O)[C@@H](Cc1c[nH]c2ccccc12)NC(=O)[C@H](CC(N)=O)NC(=O)[C@H](N)Cc1ccc(O)cc1)C(=O)N[C@@H](Cc1ccccc1)C(N)=O` [Compound No. 236, D-Tyr-Asn-D-Trp-Asn-Ser-Phe-AzaGly-Leu-Arg(Me)-Phe-NH2]: the “Specific Activity (intracellular Ca ion level-increasing activity)” value at hOT7T175 [1] came to 2. At hOT7T175 [2], this molecule showed an IC50 of 42 nM.
On to `CNC(=N)NCCC[C@H](NC(=O)[C@H](CC(C)C)NC(=O)NNC(=O)[C@H](Cc1ccccc1)NC(=O)[C@H](CO)NC(=O)[C@H](CC(N)=O)NC(=O)[C@H](Cc1c[nH]c2ccccc12)NC(=O)[C@@H](CC(N)=O)NC(=O)[C@H](N)Cc1ccc(O)cc1)C(=O)N[C@@H](Cc1ccccc1)C(N)=O` [Compound No. 237, D-Tyr-D-Asn-Trp-Asn-Ser-Phe-AzaGly-Leu-Arg(Me)-Phe-NH2], for which the “Specific Activity (intracellular Ca ion level-increasing activity)” value at hOT7T175 [1] worked out at 3. The IC50 at hOT7T175 [2] stood at 27 nM.
Take `CNC(=N)NCCC[C@H](NC(=O)[C@H](CC(C)C)NC(=O)NNC(=O)[C@H](Cc1ccccc1)NC(=O)[C@H](CO)NC(=O)[C@H](CC(N)=O)NC(=O)[C@@H](Cc1c[nH]c2ccccc12)NC(=O)[C@@H](CC(N)=O)NC(=O)[C@H](N)Cc1ccc(O)cc1)C(=O)N[C@@H](Cc1ccccc1)C(N)=O` [Compound No. 238, D-Tyr-D-Asn-D-Trp-Asn-Ser-Phe-AzaGly-Leu-Arg(Me)-Phe-NH2]: the “Specific Activity (intracellular Ca ion level-increasing activity)” value at hOT7T175 [1] amounted to 1. On hOT7T175 [2], this molecule registered an IC50 of 49 nM.
With `CNC(=N)NCCC[C@H](NC(=O)[C@H](CC(C)C)NC(=O)NNC(=O)[C@H](Cc1ccccc1)NC(=O)[C@H](CO)NC(=O)[C@H](CC(N)=O)NC(=O)[C@H](Cc1cccc2ccccc12)NC(=O)[C@H](CC(N)=O)NC(=O)[C@H](N)Cc1ccc(O)cc1)C(=O)N[C@@H](Cc1ccccc1)C(N)=O` [Compound No. 245, D-Tyr-Asn-Nal(1)-Asn-Ser-Phe-AzaGly-Leu-Arg(Me)-Phe-NH2] (H-[dY]N[1Nal]NSF[azaGly]L[Arg(Me)]F-NH2), the “Specific Activity (intracellular Ca ion level-increasing activity)” value at hOT7T175 [1] came to 1. This molecule also displayed an IC50 on hOT7T175 [2] of 98 nM.
As to `CNC(=N)NCCC[C@H](NC(=O)[C@H](CC(C)C)NC(=O)NNC(=O)[C@H](Cc1ccccc1)NC(=O)[C@H](CO)NC(=O)[C@H](CC(N)=O)NC(=O)CCc1c[nH]c2ccccc12)C(=O)N[C@@H](Cc1ccccc1)C(N)=O` [Compound No. 260, 3-(3-Indolyl)propionyl-Asn-Ser-Phe-AzaGly-Leu-Arg(Me)-Phe-NH2] ({Propanoyl(3-indol-3-yl)}-NSF[azaGly]L[Arg(Me)]F-NH2), the “Specific Activity (intracellular Ca ion level-increasing activity)” value at hOT7T175 [1] is given as 5. Besides, the 50% inhibitory concentration (IC50) at hOT7T175 [2] was found to be 320 nM.
Take `CNC(=N)NCCC[C@H](NC(=O)[C@H](CC(C)C)NC(=O)NNC(=O)[C@H](Cc1ccccc1)NC(=O)[C@H](CO)NC(=O)[C@H](CC(N)=O)NC(=O)c1c[nH]c2ccccc12)C(=O)N[C@@H](Cc1ccccc1)C(N)=O` [Compound No. 265, Indole-3-carbonyl-Asn-Ser-Phe-AzaGly-Leu-Arg(Me)-Phe-NH2] (X6-NSF[azaGly]L[Arg(Me)]F-NH2): the “Specific Activity (intracellular Ca ion level-increasing activity)” value at hOT7T175 [1] is listed as 3. The molecule also registered an IC50 on hOT7T175 [2] of 95 nM.

By IC50 is commonly meant the concentration that gives 50% inhibition. Read a high IC50 as weaker potency in that assay.
